# Laboratory results: patent US12194158B2, “Oromucosal nanofiber carriers for therapeutic treatment” (Instar Technologies A.S., priority 2016, dated 2025)
# Structures can show the parent of a compound that is named as a salt.
# How the values were obtained:
# [1] = acidic stomach pH; cited from earlier work
# [2] = In vitro transmucosal permeation of liraglutide through porcine sublingual mucosa (Franz diffusion cell); assay type: in vitro ADME; conditions: from nanofibre carrier
# Procedure: The liraglutide containing nanofibre carrier samples or the reference solution samples were applied onto fresh porcine sublingual mucosa of thickness ca 0.4 mm fixed in a Franz diffusion cell. An exposed mucosal area for permeation was 1.0 cm^2, and the stirred acceptor phase was phosphate buffer pH 7.4 tempered at 37°±0.5° C. Both the tested solutions (Victoza pre-filled pen for subcutaneous injection, 6 mg/mL and the liraglutide solution in buffer pH 6.80, 0.4 mg/mL) were applied onto the sublingual membrane in 400 μL volume. Donor nanofibre samples contained 0.5 mg of liraglutide in the form of a multilayered nanofibre disc and were suffused in donor space with 400 μL of buffer pH 6.80 or 8.15, respectively.
# Determination of liraglutide was performed on an Agilent 1200 instrument. The parameters were as follows: Column Poroshell 120 EC-C18 (4.6×150 mm, particle size: 5.0 μm) was thermostated at 35° C. Samples were kept at 10° C., injection 5.00 μL. Mobile Phase A: Na2HPO4 (pH 7.75):ACN (85:15) was mixed with Mobile Phase B: ACN in gradient and pumped at speed 1.200 mL/min. Detector wavelength: 215 nm. Resulting liraglutide retention time was ca 3.4 min.
# [3] = after oral administration; cited from earlier work
smiles,measurement,setting,value
"CCCCCCOC(=O)NC(=N)c1ccc(NCc2nc3cc(C(=O)N(CCC(=O)OCC)c4ccccn4)ccc3n2C)cc1 [DG, Dabigatran ethexylate mesylate]",solubility,[1],very good
CCCCCCCCCCCCCCCC(=O)N[C@@H](CCC(=O)NCCCC[C@H](NC(=O)[C@H](C)NC(=O)[C@H](C)NC(=O)[C@H](CCC(N)=O)NC(=O)CNC(=O)[C@H](CCC(=O)O)NC(=O)[C@H](CC(C)C)NC(=O)[C@H](Cc1ccc(O)cc1)NC(=O)[C@H](CO)NC(=O)[C@H](CO)NC(=O)[C@@H](NC(=O)[C@H](CC(=O)O)NC(=O)[C@H](CO)NC(=O)[C@@H](NC(=O)[C@H](Cc1ccccc1)NC(=O)[C@@H](NC(=O)CNC(=O)[C@H](CCC(=O)O)NC(=O)[C@H](C)NC(=O)[C@@H](N)Cc1cnc[nH]1)[C@@H](C)O)[C@@H](C)O)C(C)C)C(=O)N[C@@H](CCC(=O)O)C(=O)N[C@@H](Cc1ccccc1)C(=O)N[C@H](C(=O)N[C@@H](C)C(=O)N[C@@H](Cc1c[nH]c2ccccc12)C(=O)N[C@@H](CC(C)C)C(=O)N[C@H](C(=O)N[C@@H](CCCNC(=N)N)C(=O)NCC(=O)N[C@@H](CCCNC(=N)N)C(=O)NCC(=O)O)C(C)C)[C@@H](C)CC)C(=O)O [Liraglutide],duration of further sublingual permeation in vitro,[2],about 1 hour
same,transmucosal permeation through the sublingual membrane,[2]; FIG. 5,able to permeate transmucosally
CNS(=O)(=O)Cc1ccc2[nH]cc(CCN(C)C)c2c1 [sumatriptan],oral bioavailability,[3],15%
